For two molecules, IC50 and Solubility results are on record in patent EP0336230B1, “Cyclic peptide antagonists of Substance P and Substance K” (FUJISAWA PHARMACEUTICAL CO., LTD., priority 1988, dated 1989).

Numbered stars: 1 amine (or outer) side, 2 acyl side, 3 side chain; on linkers, the order of the positions; unused ones are H or OH. Bridge positions count the residues as written; N and C are the ends. Square brackets hold non-standard residues; d marks the D form. Peptide text beside a SMILES is read from it. * marks the point of attachment. Cinnamoyl(2-(1Z-pentenyl)) = CCC/C=C\c1ccccc1/C=C/C(=O)*; X3 = CC(=O)Oc1ccc(/C=C(\C(=O)[*:2])N(C)[*:1])cc1; X1 = CN(/C(=C/c1ccc(O)cc1)C(=O)[*:2])[*:1]; aThr = C[C@H](O)[C@H](N)C(=O)O; X2 = CCCCCc1ccccc1CCC(=O)*

Data set [1] has as its target T1, specific [^3H] substance P binding to guinea pig lung membranes (Cavia porcellus, UniProt P30547).
T1 construct: from tissue; host or cells: guinea pig trachea and lung, crude membrane fraction
The experiment in a line: ^3H-substance P binding to preparative membranes (guinea pig lung). Particulars: ^3H-Substance P 1nM, 4°C, 30 minutes, read-out: IC50 (M), displacement of specific [^3H] substance P binding.
Protocol: (a) Crude membrane preparation
Male albino Hartley strain guinea pigs (600 g) were sacrificed by decapitation. The trachea and lungs were removed, and stored at -80°C until use. These tissues (150 g) were thawed and homogenized in 500 ml buffer (0.25 M sucrose, 50 mM Tris-HCℓ pH 7.5, 0.1 mM EDTA) with a compact mixer (Matsuden MJ-761). The tissue was homogenized with a Ultra-Disperser (Yamato MODEL LK-21) at a setting of maximum range for 10-s at 10-s intervals with cooling between homogenizations (total homogenization's time : 60 seconds). The homogenate was centrifuged (900 x g for 10 min.) to remove tissue clumps and the supernatant centrifuged at 14000 x g for 20 min. to yield pellets which were referred to as crude membrane fractions. The pellets were resuspended in Medium I, homogenized with a teflon homogenizer and centrifuged at 14000 x g for 20 min. The pellets were stored at -20°C.
(b) ^3H-substance P binding to preparative membranes
^3H-Substance P (1nM, New England Nuclear) was incubated with 50 µℓ of the membrane preparation in medium I at 4°C for 30 minutes in a final volume of 250 µℓ. […] The radioactivity was counted in 3 ml of Aquazol-2 in Packard sintillation counter (Packard TRI-CARB 4530).

The nature of data set [2]: Solubility in solvents (physical and chemical properties). The format is physicochemical. The protocol: The obtained product was triturated from diethyl ether to give triacetyl-WS-9326A (332 mg) as a colorless powder. Physical and chemical properties of the triacetyl-WS-9326A are as follows. […] (23)/(D) [formula] : -122° (C=1.0, MeOH) (6) Ultraviolet Absorption Spectrum : λ (MeOH)/(max) [formula] = 283 nm (ε=32,000) (7) Molecular Formula : C60H74N8O16 (8) Elemental Analysis : […]

In general, IC50 refers to the concentration at which inhibition is half-maximal.

T1 sequence (P30547 whole entry): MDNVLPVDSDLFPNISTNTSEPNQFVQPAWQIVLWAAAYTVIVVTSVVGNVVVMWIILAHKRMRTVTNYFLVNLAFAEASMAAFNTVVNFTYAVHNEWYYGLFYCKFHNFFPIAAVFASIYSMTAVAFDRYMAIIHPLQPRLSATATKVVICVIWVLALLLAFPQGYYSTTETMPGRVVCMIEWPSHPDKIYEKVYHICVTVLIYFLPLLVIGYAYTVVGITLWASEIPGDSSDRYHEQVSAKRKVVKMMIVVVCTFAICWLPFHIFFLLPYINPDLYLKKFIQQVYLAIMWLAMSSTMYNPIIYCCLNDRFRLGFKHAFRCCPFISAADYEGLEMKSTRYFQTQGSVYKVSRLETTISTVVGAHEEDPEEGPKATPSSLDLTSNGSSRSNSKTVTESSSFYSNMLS

Regarding `CCCCCc1ccccc1CCC(=O)N[C@@H]1C(=O)N(C)/C(=C/c2ccc(O)cc2)C(=O)N[C@@H](CC(C)C)C(=O)N[C@H](Cc2ccccc2)C(=O)N[C@@H]([C@H](C)O)C(=O)N[C@@H](CC(N)=O)C(=O)N[C@@H](CO)C(=O)O[C@@H]1C` [Tetrahydro-WS-9326A] (X2-T[X1]L[dF][aThr]NS; ester 1-C), in data set [1], the IC50 was found to be 4.2e-07 M.

For `CCC/C=C\c1ccccc1/C=C/C(=O)N[C@@H]1C(=O)N(C)/C(=C/c2ccc(OC(C)=O)cc2)C(=O)N[C@@H](CC(C)C)C(=O)N[C@H](Cc2ccccc2)C(=O)N[C@@H]([C@H](C)OC(C)=O)C(=O)N[C@@H](CC(N)=O)C(=O)N[C@@H](COC(C)=O)C(=O)O[C@@H]1C` [triacetyl-WS-9326A] ({Cinnamoyl(2-(1Z-pentenyl))}-T[X3]L[dF][aThr](Ac)NS(Ac); ester 1-C), the Solubility result in data set [2] (chloroform) is listed as “Sparingly Soluble”; in data set [2] (diethyl ether) it was “Sparingly Soluble”; in data set [2] (dimethyl sulfoxide) it was “Soluble”; in data set [2] (methanol) it was “Soluble”; in data set [2] (n-hexane), “Insoluble”.
